Assay results reported in US11840686B2, “Modulation of prekallikrein (PKK) expression” (Ionis Pharmaceuticals, Inc., priority 2013, dated 2023).
Strand notation (5' to 3'): a small letter for the sugar, then the base; units joined by * are phosphorothioate-linked, units joined directly phosphodiester-linked; [ ] holds rarer units or linkages, { } end groups; capitals alone tell only the bases. e = 2'-O-(2-methoxyethyl) (MOE); k = constrained ethyl (cEt); [5mC] = 5-methylcytosine; d = 2'-deoxy (DNA)

Tested on: human PKK mRNA
Assay: Antisense inhibition of human PKK mRNA in HepaRG cells, 1,000 nM, MOE/deoxy/cEt oligonucleotides (Example 3)
Assay type: cell-based
Summary of the method: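 HepaRG cells at 20,000 per well electroporated with 1,000 nM 16-mer MOE/cEt/deoxy gapmers (phosphorothioate, 5-methylcytosine). After about 24 h, PKK mRNA measured by qRT-PCR with primer probe set RTS3454, normalized to RIBOGREEN total RNA. Reported as percent inhibition versus untreated cells.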

[1] = Table 28, HepaRG cells, 1,000 nM antisense oligonucleotide, human PKK mRNA
[2] = HepaRG cells, electroporation with 1,000 nM antisense oligonucleotide, approx. 24 hours, PKK mRNA by RT-PCR (RTS3454), relative to untreated control cells, Table 26 experiment
[3] = Table 27, HepaRG cells, 1,000 nM antisense oligonucleotide, human PKK mRNA
[4] = Table 30, human PKK mRNA, HepaRG cells, 1,000 nM antisense oligonucleotide
[5] = Table 20, HepaRG cells, electroporation with 1,000 nM antisense oligonucleotide, approximately 24 hours, PKK mRNA by RT-PCR (RTS3454), relative to untreated control cells
[6] = Table 22 experiment, HepaRG cells, electroporation with 1,000 nM antisense oligonucleotide, approx. 24 hours, PKK mRNA by RT-PCR (RTS3454), relative to untreated control cells
[7] = Table 19, HepaRG cells, electroporation with 1,000 nM antisense oligonucleotide, approximately 24 hours, PKK mRNA by RT-PCR (RTS3454), relative to untreated control cells
[8] = HepaRG cells, electroporation with 1,000 nM antisense oligonucleotide, approximately 24 hours, primer probe set RTS3454, relative to untreated control cells, experiment of Table 24
[9] = HepaRG cells, electroporation with 1,000 nM antisense oligonucleotide, approx. 24 hours, PKK mRNA by RT-PCR (RTS3454), relative to untreated control cells, Table 25 experiment

## 548502 (antisense eA*eA*kT*dT*d[5mC]*dT*dT*dG*dG*dA*d[5mC]*d[5mC]*dA*kA*kG*eG) [compound 548502]
[1]
  % inhibition: 25%

## 548463 (eT*e[5mC]*kA*d[5mC]*dT*dG*dT*dA*d[5mC]*d[5mC]*dT*dA*dT*kA*kT*e[5mC]; antisense) [compound 548463]
[1]
  % inhibition: 0%

## 548240 (eA*eT*kA*d[5mC]*dT*d[5mC]*dG*d[5mC]*d[5mC]*dT*dT*dT*dG*kT*kG*eA; antisense) [compound 548240]
[2]
  % inhibition: 3%

## 548311 (eT*eG*kA*d[5mC]*d[5mC]*dA*d[5mC]*d[5mC]*dT*d[5mC]*dT*d[5mC]*dG*kG*kG*eT; antisense) [compound 548311]
[3]
  % inhibition: 10%

## 548383 (eG*eT*k[5mC]*dT*d[5mC]*dG*dA*dT*dG*dG*d[5mC]*dA*dA*kG*k[5mC]*eT; antisense) [compound 548383]
[4]
  % inhibition: 49%

## 547875 (antisense e[5mC]*eA*k[5mC]*dT*dG*d[5mC]*dT*dA*dA*d[5mC]*d[5mC]*dT*dT*kA*kG*eA) [compound 547875]
[5]
  % inhibition: 73%
[6]
  % inhibition: 57%

## 548406 (eT*e[5mC]*kT*dA*dG*dA*dG*dG*d[5mC]*d[5mC]*dG*d[5mC]*d[5mC]*kT*kG*e[5mC]; antisense) [compound 548406]
[4]
  % inhibition: 0%

## 548148 (eG*e[5mC]*kA*dG*d[5mC]*dT*d[5mC]*dT*dG*dA*dG*dT*dG*k[5mC]*kA*e[5mC]; antisense) [compound 548148]
[7]
  % inhibition: 66%

## 548082 (eA*eA*kG*d[5mC]*dA*dT*d[5mC]*dT*dT*dT*dT*d[5mC]*d[5mC]*k[5mC]*k[5mC]*e[5mC]; antisense) [compound 548082]
[7]
  % inhibition: 42%

## 548050 (eA*eG*kG*d[5mC]*dG*dA*dT*dA*dT*d[5mC]*dA*dT*dG*kA*kT*eT; antisense) [compound 548050]
[8]
  % inhibition: 37%

## 548181 (eG*eT*k[5mC]*dA*dT*dG*dG*dA*dG*dA*dT*d[5mC]*dT*k[5mC]*kA*eG; antisense) [compound 548181]
[9]
  % inhibition: 55%

## 548290 (eG*eA*kG*d[5mC]*dA*d[5mC]*dT*d[5mC]*dT*dT*dA*dT*dT*kA*kG*e[5mC]; antisense) [compound 548290]
[2]
  % inhibition: 31%

## 547869 (antisense eA*eA*k[5mC]*d[5mC]*dT*dT*dA*dG*dA*d[5mC]*dA*d[5mC]*dA*kT*kT*eA) [compound 547869]
[5]
  % inhibition: 45%
[6]
  % inhibition: 77%

## 548331 (antisense eA*e[5mC]*kA*dA*dT*d[5mC]*d[5mC]*d[5mC]*dT*dT*dA*dG*d[5mC]*k[5mC]*k[5mC]*eA) [compound 548331]
[3]
  % inhibition: 73%

## 548053 (eA*eT*kT*d[5mC]*dA*dA*dA*dG*dG*dA*dG*d[5mC]*d[5mC]*kT*kG*eG; antisense) [compound 548053]
[8]
  % inhibition: 36%

## 548064 (eT*eG*kG*dT*dA*dT*dA*dA*dA*dT*dT*dG*dT*kG*k[5mC]*eT; antisense) [compound 548064]
[8]
  % inhibition: 54%

## 548611 (antisense eG*e[5mC]*kG*dG*dG*dA*dT*d[5mC]*dG*dG*dT*dG*dG*kT*kG*eG) [compound 548611]
HepaRG cells, 1,000 nM antisense oligonucleotide, Table 29
  % inhibition: 7%

## 547989 (antisense e[5mC]*eT*kG*dA*d[5mC]*dA*dG*d[5mC]*dG*dA*dA*dT*d[5mC]*kA*kT*e[5mC]) [compound 547989]
HepaRG cells, electroporation with 1,000 nM antisense oligonucleotide, approximately 24 hours, primer probe set RTS3454, relative to untreated control cells, experiment of Table 23
  % inhibition: 66%

## 548022 (e[5mC]*e[5mC]*kA*d[5mC]*dT*d[5mC]*dT*d[5mC]*d[5mC]*d[5mC]*d[5mC]*dA*dA*kG*kA*eA; antisense) [compound 548022]
[8]
  % inhibition: 69%

## 548183 (e[5mC]*eA*kG*dT*d[5mC]*dA*dT*dG*dG*dA*dG*dA*dT*k[5mC]*kT*e[5mC]; antisense) [compound 548183]
[9]
  % inhibition: 43%

## 548039 (eG*eA*kA*dA*dG*dG*dT*dG*dT*dA*dT*d[5mC]*dT*kT*kT*eT; antisense) [compound 548039]
[8]
  % inhibition: 29%

## 548533 (antisense eG*eA*kG*dG*dT*dG*dG*dT*dT*dG*dG*dA*dG*k[5mC]*kT*eA) [compound 548533]
[1]
  % inhibition: 9%
